Measured values as given in ChEMBL document CHEMBL1159165, “Novel, selective mechanism-based inhibitors of the herpes proteases” (Bioorg Med Chem Lett, 1996).

Tests used:
[1] = Compound was evaluated for inhibitory activity against elastase at dose of 100 uM
[2] = target: Serine protease 1 (Homo sapiens) (UniProt P07477); assay: Compound was evaluated for inhibitory activity against trypsin at dose of 100 uM
[3] = tested on: Human betaherpesvirus 5; assay: Compound was evaluated for inhibitory activity against human cytomegalovirus (HCMV) protease.; type: functional
[4] = Compound was evaluated for inhibitory activity against herpes simplex type 2 protease (HSV-2 pr) at dose of 10 uM; conditions: Human alphaherpesvirus 2
[5] = tested on: Human betaherpesvirus 5; assay: Compound was evaluated for inhibitory activity against human cytomegalovirus (HCMV) protease at dose of 10 uM; type: functional
[6] = Compound was evaluated for inhibitory activity against Chymotrypsinogen at dose of 22 uM
[7] = tested on: Human betaherpesvirus 5; assay: Compound was evaluated for inhibitory activity against human cytomegalovirus (HCMV) protease 10 uM; type: functional
[8] = Compound was evaluated for inhibitory activity against Chymotrypsinogen at dose of 100 uM

Serine protease 1 (Homo sapiens), sequence (P07477 whole entry): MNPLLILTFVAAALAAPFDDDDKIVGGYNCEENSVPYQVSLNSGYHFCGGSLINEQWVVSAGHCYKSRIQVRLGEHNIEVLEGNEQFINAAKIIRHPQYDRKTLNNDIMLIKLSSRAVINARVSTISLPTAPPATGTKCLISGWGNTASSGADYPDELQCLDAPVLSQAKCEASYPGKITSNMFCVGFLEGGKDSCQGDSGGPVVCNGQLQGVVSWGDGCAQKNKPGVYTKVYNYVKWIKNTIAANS

Compound	inhibition [1]	IC50 [3]	inhibition [4]	also measured
CC1=N[C@@]2(C[C@@H]2c2ccccc2)C(=O)O1	82%			inhibition [2]: 88%
CS(=O)(=O)ON1C(=O)/C(=C/c2ccccc2)N=C1c1ccccc1	33%	0.4 µM		
CCOP(=O)(OCC)ON1C(=O)/C(=C/c2ccccc2)N=C1c1ccccc1			5%	inhibition at 10 µM [5]: 20%
O=C1OC(c2ccccc2)=N[C@@]12C[C@@H]2c1ccccc1	42%	1.8 µM		inhibition [2]: 63%; inhibition [6]: 92%
O=C1OC(c2ccccc2)=NC12CC2			71%	Inhibition [7]: 16%
COc1ccc([C@H]2C[C@@]23N=C(c2ccccc2)OC3=O)cc1	35%	0.2 µM		inhibition [2]: 64%; inhibition [8]: 92%
O=C1OC(c2ccccc2)=N[C@@]12C[C@H]2c1ccccc1			24%	inhibition at 10 µM [5]: 85%
CC(=O)Oc1ccc([C@H]2C[C@@]23N=C(c2ccccc2)OC3=O)cc1		1.1 µM		
COc1ccc(S(=O)(=O)ON2C(=O)/C(=C/c3ccccc3)N=C2c2ccccc2)cc1		2.3 µM	20%	
CC(=O)n1cc([C@H]2C[C@@]23N=C(c2ccccc2)OC3=O)c2ccccc21		0.16 µM		
CC(=O)ON1C(=O)/C(=C/c2ccccc2)N=C1c1ccccc1			14%	inhibition at 10 µM [5]: 35%
